Laboratory results taken from the supplement of paper PMC9549728.
Counter-ions that a name gives are not always drawn.

Columns and labels:
Test in all cases: IC50 (viability, PrestoBlue) (log10 nM)
Conditions in all cases: exposure time: 72 h
[1] = test system: murine gastric organoid RAS-activated (Kras G12D; Tp53 R172H)
Method: (§1)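 Murine gastric corpus organoids (normal uninduced; RAS-activated Kras G12D/Tp53 R172H; diffuse Cdh1/Apc loss; WNT-activated Apc loss/Tp53 R172H) were seeded in Matrigel into pre-spotted 384-well plates. The plates held a 196-compound library at 6.7 nM to 25,004 nM (9 doses) and were incubated 72 h. Viability was read by PrestoBlue fluorescence (560/590 nm). IC50 came from non-linear regression (Prism), reported as log10 IC50 in nM, mean of 3 passages x 2 wells.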

[2] = test system: murine gastric organoid WNT-activated (Apc fl/fl; Tp53 R172H)
Method: as §1

[3] = test system: murine gastric organoid diffuse (Cdh1 fl/fl; Apc fl/fl)
Method: as §1

[4] = test system: murine normal gastric organoid
Method: as §1

SMILES | IC50 (log10 nM) [1] | IC50 (log10 nM) [2] | IC50 (log10 nM) [3] | IC50 (log10 nM) [4]
CCN1CCN(Cc2ccc(Nc3ncc(F)c(-c4cc(F)c5nc(C)n(C(C)C)c5c4)n3)nc2)CC1 | 2.88 | 2.47 | 2.7 | 2.94
CCNC(=O)C[C@@H]1N=C(c2ccc(Cl)cc2)c2cc(OC)ccc2-n2c(C)nnc21 | 3.3 | 1.54 | 3.13 | 2.77
COc1ccc(-c2cc3c(C)nc(N)nc3n([C@H]3CC[C@H](OCCO)CC3)c2=O)cn1 | 2.17 | 2.11 | 2 | 2.08
Nc1ncn([C@@H]2O[C@H](CO)[C@@H](O)[C@H]2O)c(=O)n1 [5-Azacytidine] | 3.64 | 3.58 | 3.5 | 3.78
Nc1nc(=S)c2[nH]cnc2[nH]1 [6-Thioguanine] | 3.8 | 1.35 | 4.29 | 3.73
CC1(C)CCC(CN2CCN(c3ccc(C(=O)NS(=O)(=O)c4ccc(NCC5CCOCC5)c([N+](=O)[O-])c4)c(Oc4cnc5[nH]ccc5c4)c3)CC2)=C(c2ccc(Cl)cc2)C1 [ABT-199] | 4.06 | 3.1 | 4.17 | 3.61
Cc1c2oc3c(C)ccc(C(=O)N[C@@H]4C(=O)N[C@H](C(C)C)C(=O)N5CCC[C@H]5C(=O)N(C)CC(=O)N(C)[C@@H](C(C)C)C(=O)O[C@@H]4C)c3nc-2c(C(=O)N[C@@H]2C(=O)N[C@H](C(C)C)C(=O)N3CCC[C@H]3C(=O)N(C)CC(=O)N(C)[C@@H](C(C)C)C(=O)O[C@@H]2C)c(N)c1=O [Actinomycin D] | < 0.826 | < 0.826 | < 0.826 | < 0.826
CN(C)C/C=C/C(=O)Nc1cc2c(Nc3ccc(F)c(Cl)c3)ncnc2cc1O[C@H]1CCOC1 [Afatinib] | 3.6 | 1.27 | 1.95 | 1.55
COc1cc(Nc2ncc3c(n2)-c2ccc(Cl)cc2C(c2c(F)cccc2OC)=NC3)ccc1C(=O)O [Alisertib] | 2 | 3.02 | 2.98 | 2.47
CN(C)CCN1C(=O)c2cccc3cc(N)cc(c23)C1=O [Amonafide] | 3.03 | 2.39 | 3.23 | 3.1
CNC(=O)c1ccccc1Sc1ccc2c(/C=C/c3ccccn3)n[nH]c2c1 [Axitinib] | 3.3 | 2.75 | 3.78 | 3.98
O=C(/C=C/c1cccc(S(=O)(=O)Nc2ccccc2)c1)NO [Belinostat] | 2.61 | 3.27 | 3.29 | 3.2
Cn1cnc2c(F)c(Nc3ccc(Br)cc3F)c(C(=O)NOCCO)cc21 [Binimetinib] | 2.28 | 2.96 | 3.03 | 2.09
Cc1c(N)nc([C@H](CC(N)=O)NC[C@H](N)C(N)=O)nc1C(=O)N[C@H](C(=O)N[C@H](C)[C@@H](O)[C@H](C)C(=O)N[C@H](C(=O)NCCc1nc(-c2nc(C(=O)NCCC[S+](C)C)cs2)cs1)[C@@H](C)O)[C@@H](OC1OC(CO)C(O)C(O)C1OC1OC(CO)C(O)C(OC(N)=O)C1O)c1cnc[nH]1 (some centres not stated) [Bleomycin] | 3.83 | > 4.4 | 3.57 | 3.85
CC(C)C[C@H](NC(=O)[C@H](Cc1ccccc1)NC(=O)c1cnccn1)B(O)O [Bortezomib] | 0.871 | 1.16 | 1.1 | 1.14
COc1cc(Nc2c(C#N)cnc3cc(OCCCN4CCN(C)CC4)c(OC)cc23)c(Cl)cc1Cl [Bosutinib] | 3.57 | 3.01 | 3.58 | 3.96
N#CCNC(=O)c1ccc(-c2ccnc(Nc3ccc(N4CCOCC4)cc3)n2)cc1 [CYT387] | 3.51 | 4.05 | 3.58 | 3.48
C=CC(=O)Nc1cc2c(Nc3ccc(F)c(Cl)c3)ncnc2cc1OCCCN1CCOCC1 [Canertinib] | 3.85 | 2.17 | 2.6 | 2.35
CC(C)C[C@H](NC(=O)[C@H](CCc1ccccc1)NC(=O)CN1CCOCC1)C(=O)N[C@@H](Cc1ccccc1)C(=O)N[C@@H](CC(C)C)C(=O)[C@@]1(C)CO1 [Carfilzomib] | 1.16 | 1.32 | 1.04 | 1.16

SMILES | IC50 (log10 nM) [1] | IC50 (log10 nM) [2] | IC50 (log10 nM) [3] | IC50 (log10 nM) [4]
COc1cc2c(Oc3ccc4[nH]c(C)cc4c3F)ncnc2cc1OCCCN1CCCC1 [Cediranib maleate] | 2.93 | < 0.826 | 2.67 | 3.38
O=C(O)CCCc1ccc(N(CCCl)CCCl)cc1 [Chlorambucil] | 2.93 | 3.92 | 2.48 | 3.32
N.N.[Cl][Pt][Cl] [Cisplatin] | 3.54 | 3.59 | 3.13 | 3
Nc1nc(Cl)nc2c1ncn2[C@H]1C[C@H](O)[C@@H](CO)O1 [Cladribine] | 3.08 | 3.27 | 3.04 | 3.19
Nc1nc(Cl)nc2c1ncn2[C@@H]1O[C@H](CO)[C@@H](O)[C@@H]1F [Clofarabine] | 3.04 | 3.27 | 2.97 | 3.15
O=C(c1ccc(F)c(F)c1Nc1ccc(I)cc1F)N1CC(O)([C@@H]2CCCCN2)C1 [Cobimetinib] | 1.75 | 1.82 | 1.74 | 1.45
COc1c(OCCCN2CCOCC2)ccc2c1N=C(NC(=O)c1cnc(N)nc1)N1CCN=C21 [Copanlisib] | 2 | 1.96 | 2.23 | 1.94
C[C@@H](Oc1cc(-c2cnn(C3CCNCC3)c2)cnc1N)c1c(Cl)ccc(F)c1Cl [Crizotinib] | 2.96 | 2.95 | 3.22 | 3.4
Nc1ccn([C@@H]2O[C@H](CO)[C@@H](O)[C@@H]2O)c(=O)n1 [Cytarabine] | 2.07 | 2.9 | 2.71 | 2.33
Cc1nc(Nc2ncc(C(=O)Nc3c(C)cccc3Cl)s2)cc(N2CCN(CCO)CC2)n1 [Dasatinib hydrochloride] | 1.86 | 1.29 | 2.3 | 2.05
COc1cccc2c1C(=O)c1c(O)c3c(c(O)c1C2=O)C[C@@](O)(C(C)=O)C[C@@H]3O[C@H]1C[C@H](N)[C@H](O)[C@H](C)O1 [Daunorubicin hydrochloride] | 1.6 | 1.73 | 1.77 | 1.56
Nc1ncn([C@H]2C[C@H](O)[C@@H](CO)O2)c(=O)n1 [Decitabine] | > 4.4 | 3.34 | 3.85 | 2.9
CCc1cnn2c(NCc3ccc[n+]([O-])c3)cc(N3CCCC[C@H]3CCO)nc12 [Dinaciclib] | > 4.4 | 4.28 | 4.11 | > 4.4
CN1CCN(c2ccc3nc(-c4c(N)c5c(F)cccc5[nH]c4=O)[nH]c3c2)CC1 [Dovitinib] | 3.46 | 3.41 | 3.4 | 3.21
COc1cccc2c1C(=O)c1c(O)c3c(c(O)c1C2=O)C[C@@](O)(C(=O)CO)C[C@@H]3O[C@H]1C[C@H](N)[C@H](O)[C@H](C)O1 [Doxorubicin] | 2.14 | 2.2 | 2.23 | 2.02
Nc1ccccc1NC(=O)c1ccc(CNC(=O)OCc2cccnc2)cc1 [Entinostat] | 3.36 | 3.99 | 3.39 | 4.22
C#Cc1cccc(Nc2ncnc3cc(OCCOC)c(OCCOC)cc23)c1 [Erlotinib] | > 4.4 | 2.67 | 2.97 | 2.58
COc1cc([C@@H]2c3cc4c(cc3[C@@H](O[C@@H]3O[C@@H]5CO[C@@H](C)O[C@H]5[C@H](O)[C@H]3O)[C@H]3COC(=O)[C@H]23)OCO4)cc(OC)c1O [Etoposide] | 2.89 | 3.07 | 3.06 | 2.67
CO[C@H]1C[C@@H]2CC[C@@H](C)[C@@](O)(O2)C(=O)C(=O)N2CCCC[C@H]2C(=O)O[C@H]([C@H](C)C[C@@H]2CC[C@@H](OCCO)[C@H](OC)C2)CC(=O)[C@H](C)/C=C(\C)[C@@H](O)[C@@H](OC)C(=O)[C@H](C)C[C@H](C)/C=C/C=C/C=C/1C [Everolimus] | 3.26 | 3.26 | 3.31 | 3.4
